From US20180064679A1, “METHOD FOR TREATING CANCER BASED ON LEVEL OF GLUCOCORTICOID RECEPTOR” (Abraxis BioScience, LLC, priority 2015, published 2018)

Assays:
H522 cell line = test: caspase-3/7 activation assay in H522 cell line; assay type: cell-based; conditions: 100 nM DEX, 100 nM PTX, H522 (minimal level of GR)
H23 cells = test: caspase-3/7 activation assay in H23 cells; assay type: cell-based; conditions: H23 cells (low level of GR expression), data not shown
H1755 cells = test: caspase-3/7 activation (apoptosis) assay in H1755 cells; assay type: cell-based, human
Protocol: H1755 cells were cultured using EMEM with 10% FBS. FBS was charcoal-filtered to remove endogenous steroids. Cells were plated at 5000 cell per well and treated 24 hours after plating. H1755 cell samples treated with DEX received DEX 30 minutes prior to administration of PTX or a vehicle control. Vehicle controls are the same as those discussed in Example 1. Additionally, during PTX and/or DEX drug dosing, a caspase-3/7 activation reagent was added to the cell samples, for example, Caspase-3/7 reagent (Essen BioScience, Ann Arbor, Mich; Catalog No. 4440). Specifically, the CELLPLAYER™ Kinetic Caspase-3/7 activation assay reagents (Essen BioScience, Ann Arbor, Mich.) were used to detect caspase-3/7 activation.
At time points following PTX administration the activation of the caspase-3/7 reagent was measured with, for example, an INCUCYTE™ FLR (Essen BioScience, Ann Arbor, Mich.). […] Apoptotic or apoptosing H1755 cells (caspase-3/7 positive cells) are indicated in white, as measured by caspase-3/7 activation (FIGS. 3A-3D).
To determine the EC50 of DEX in H1755 cells, a series of PTX concentrations were evaluated for caspase-3/7 activation across a series of DEX concentrations. […]
H1755 cell samples were treated with 0, 0.43, 1.3, 4.12, 12.3, 37, 111, 333, 1000, or 3000 nM PTX. […] At time points following drug administration, caspase-3/7 activation was measured as discussed in Example 1.

SGK1 = test: qRT-PCR of SGK1 mRNA in H1755 cells; assay type: cell-based, human; conditions: 100 nM DEX, H1755 cells, 1, 4 or 24 hours
Protocol: (§1) H1755 and H522 cells were cultured using RPMI media that was charcoal-filtered media to remove steroids. Cell samples received one of the following treatments: vehicle control (0.1% EtOH for DEX vehicle control or 0.1% DMSO for PTX vehicle control), 100 nM DEX, 100 nM PTX, or 100 nM DEX and 100 nM PTX. At 1 hour, 4 hours, or 24 hours after drug administration, cell samples were harvested and mRNA levels of MKP-1 and SGK1 were measured via quantitative real-time polymerase chain reaction (qRT-PGR). Western blot analysis of GR, phosphorylated JNK1 (P-JNK1; phosphorylation at Thr 183 and Tyr 185), JNK1, phosphorylated c-Jun (P c-Jun; phosphorylation at Ser 73 or Ser 63), c-Jun, phosphorylated MKP1 (pMKP1; phosphorylated at Ser 359), SG1, phosphorylated MCL-1 (pMCL-1; phosphorylated at Ser 64), MCL-1, phosphorylated BCL2 (pBC1,2; phosphorylated at Ser 70), BCL2, BCLXL, cleaved caspase-3, and GAPDH (for purposes of normalization) was performed following treatment with either a vehicle control (0.1% EtOH for DEX vehicle control or 0.1% DMSO for PTX vehicle control), 100 nM DEX, 100 nM PTX, or 100 nM DEX and 100 nM PTX.

MKP-1 = test: qRT-PCR of MKP-1 mRNA in H1755 cells; assay type: cell-based, human; conditions: 100 nM DEX, H1755 cells, 1, 4 or 24 hours
Protocol: as §1

MAP TAU = test: Western blot of MAP TAU in H1755 cells; assay type: cell-based, human
Protocol: H1755 and H522 cells were analyzed by Western blot at 4 and 24 hours following administration of a vehicle control (0.1% EtOH for DEX vehicle control or 0.1% DMSO for PTX vehicle control), 100 nM DEX, 100 nM PTX, or 100 nM DEX and 100 nM PTX.

MDA-MB-231 cells = test: caspase-3/7 activation (apoptosis) assay in MDA-MB-231 cells; assay type: cell-based; conditions: PTX 0-3000 nM alone, roughly 34.5 hours
Protocol: MDA-MB-231 cells were cultured using Eagle's minimum essential medium (EMEM) with 10% fetal bovine serum (FBS). FBS was charcoal-filtered to remove endogenous steroids. Cells were plated at 5000 cell per well and treated 24 hours after plating. PTX doses of 3000, 1000, 333.3, 111.1, 37.0, 12.3, 4.1, 1.4, 0.5, and 0 nM were evaluated. MDA-MB-231 cell samples treated with DEX received 100 nM DEX 30 minutes prior to administration of PTX or a vehicle control. The vehicle control for DEX was 0.1% ethanol, final concentration after addition. The vehicle control for PTX was 0.1% DMSO, final concentration after addition. Additionally, during PTX and/or DEX drug dosing, a caspase-3/7 activation reagent was added to the cell samples, for example, Caspase-3/7 reagent (Essen BioScience, Ann Arbor, Mich.; Catalog No. 4440). Specifically, the CELLPLAYER™ Kinetic Caspase-3/7 activation assay reagents (Essen BioScience, Ann Arbor, Mich.) were used to detect caspase-3/7 activation.
At time points following PTX administration (e.g., roughly every 3 hours) the activation of the caspase-3/7 reagent was measured with, for example, an INCUCYTE™ FLR (Essen BioScience, Ann Arbor, Mich.). Activation of caspase-3/7 is indicative of an apoptotic and/or an apoptosing cell. All concentrations of PTX, both with and without DEX, were evaluated in triplicate.

[1] = tested on: ERK, phosphorylated ERK, p38, and phosphorylated p38; test: Western blot of MAPK pathway proteins in H1755 and H522 cells; assay type: cell-based; conditions: 100 nM DEX and/or 100 nM PTX, 4 hours
Protocol: H1755 and H522 cells were analyzed by Western blot at 4 hours following administration of a vehicle control (0.1% EtOH for DEX vehicle control or 0.1% DMSO for PTX vehicle control), 100 nM DEX, 100 nM PTX, or 100 nM DEX and 100 nM PTX.

BCLXL [2] = test: Western blot of BCLXL in H1755 cells; assay type: cell-based, human; conditions: 100 nM PTX, 24 hours
Protocol: as §1
(§2) Furthermore, pro-survival markers, MCL1, BCL2, and BCLXL, were measured by Western blot to evaluate changes following treatment with DEX, PTX, or DEX and PTX. MCL1, BCL2, and BCLXL inhibit apoptosis by blocking activation of caspases, such as, caspase-3. […]

phosphorylated BCL2 = test: Western blot of phosphorylated BCL2 in H1755 cells; assay type: cell-based, human; conditions: 100 nM PTX, 24 hours
Protocol: as §1, §2

cleaved caspase-3 [3] = test: Western blot of cleaved caspase-3 in H522 cells; assay type: cell-based; conditions: 100 nM PTX, 24 hours
Protocol: as §1, §2

MCL1 = test: Western blot of MCL1 and phosphorylated MCL1; assay type: cell-based; conditions: 100 nM PTX, 24 hours, H1755 and H522 cells
Protocol: as §1, §2

BCLXL [4] = test: Western blot of BCLXL in H522 cells; assay type: cell-based; conditions: 100 nM PTX, 24 hours
Protocol: as §1, §2

cleaved caspase-3 [5] = test: Western blot of cleaved caspase-3 in H1755 cells; assay type: cell-based, human; conditions: 100 nM PTX, 24 hours
Protocol: as §1, §2

[6] = tested on: phosphorylated c-Jun (Ser 73); test: Western blot of phosphorylated c-Jun (Ser 73) in H1755 cells; assay type: cell-based, human; conditions: 100 nM PTX, 4 hours
Protocol: (§3) H1755 and H522 cells were cultured using RPMI media that was charcoal-filtered media to remove steroids. Cell samples received one of the following treatments: vehicle control (0.1% EtOH for DEX vehicle control or 0.1% DMSO for PTX vehicle control), 100 nM DEX, 100 nM PTX, or 100 nM DEX and 100 nM PTX. At 1 hour, 4 hours, or 24 hours after drug administration, cell samples were harvested and mRNA levels of MKP-1 and SGK1 were measured via quantitative real-time polymerase chain reaction (qRT-PGR). […]
(§4) In addition to measuring MKP-1 and SGK1 mRNA expression, a series of proteins (and their phosphorylation status) involved in stress pathway signaling were evaluated via Western blot to measure changes following treatment with DEX, PTX, or DEX and PTX. JNK1 was measured after 2 hours of treatment, P c-Jun, c-Jun, pMPK1, and SGK1 were measured after 4 hours of treatment, and other measurements were after 24 hours of treatment. […]

[7] = tested on: phosphorylated c-Jun (Ser 73); test: Western blot of phosphorylated c-Jun (Ser 73) in H522 cells; assay type: cell-based; conditions: 100 nM PTX, 4 hours
Protocol: as §3, §4

| EC50 (H1755 cells; Homo sapiens, NCI-H1755, caspase-3/7 activation, series of PTX and DEX concentrations) | Structure (SMILES) | DEX antagonism of PTX-induced apoptosis (H522 cell line) | DEX effect on PTX-induced apoptosis (H23 cells) | up-regulation of SGK1 mRNA by DEX, maximum (SGK1) | up-regulation of MKP-1 mRNA by DEX, maximum (MKP-1) | increase of MAP TAU in cells treated with DEX and PTX (MAP TAU; 100 nM DEX and 100 nM PTX, 24 hours) | DEX-induced upregulation of MAP TAU (MAP TAU; 100 nM DEX, 24 hours after drug administration) | level of apoptosis (as measured by level of caspase-3/7 activation) (MDA-MB-231 cells) | change of MAPK pathway proteins and MAPK signaling mechanisms [1] | BCLXL expression (BCLXL [2]) | phosphorylation of BCL2 (phosphorylated BCL2) | expression of cleaved caspase-3 (cleaved caspase-3 [3]) | phosphorylation of MCL1 (MCL1) | total expression of MCL1 (MCL1) | BCLXL expression (BCLXL [4]) | expression of cleaved caspase-3 (cleaved caspase-3 [5]) | phosphorylation of c-Jun on Ser 73 following PTX treatment [6] | level of apoptosis (caspase-3/7 activation), PTX alone (H1755 cells; 111 nM PTX) | phosphorylation of c-Jun on Ser 73 following PTX treatment [7] |
| --- | --- | --- | --- | --- | --- | --- | --- | --- | --- | --- | --- | --- | --- | --- | --- | --- | --- | --- | --- |
| 4 nM | C[C@@H]1C[C@H]2[C@@H]3CCC4=CC(=O)C=C[C@]4(C)[C@@]3(F)[C@@H](O)C[C@]2(C)[C@@]1(O)C(=O)CO [DEX, dexamethasone] | no effect | no effect | 2.5 fold | 8 fold | 2 fold | 5 fold |  |  |  |  |  |  |  |  |  |  |  |  |
|  | CC(=O)O[C@H]1C(=O)[C@@]2(C)[C@H]([C@H](OC(=O)c3ccccc3)[C@]3(O)C[C@H](OC(=O)[C@H](O)[C@@H](NC(=O)c4ccccc4)c4ccccc4)C(C)=C1C3(C)C)[C@]1(OC(C)=O)CO[C@@H]1C[C@@H]2O [PTX, paclitaxel] |  |  |  |  |  |  | higher concentrations of PTX induced increased levels of apoptosis | minimally changed | down-regulated | up-regulated | increases | up-regulated | decreasing | not H522 cells | increases | increased | marked increase in apoptosis | increased |
